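Five compound concentrations were applied to cells in 96-well plates for 48 hours; endpoints were derived by simple linear interpolation of the resulting dose-response curve. The concentration for 50% growth inhibition is given as GI50.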 The source made the active and inactive calls. No stated cut-off is given here; in the data, active = GI50 up to about 1.1 µM and inactive = higher.
Key:
Experiment in all cases: growth of human tumour cells (NCI), 48 h
SK-MEL-5 = tested on: SK-MEL-5
SN12C = tested on: SN12C
NCI-H23 = tested on: NCI-H23
OVCAR-4 = tested on: OVCAR-4
CAKI-1 = tested on: CAKI-1
KM12 = tested on: KM12
UACC-62 = tested on: UACC-62
HCT-116 = tested on: HCT-116
NCI-H226 = tested on: NCI-H226
UACC-257 = tested on: UACC-257
SNB-19 = tested on: SNB-19
HOP-62 = tested on: HOP-62
UO-31 = tested on: UO-31
NCI-H460 = tested on: NCI-H460
HCT-15 = tested on: HCT-15
RXF 393 = tested on: RXF 393
A498 = tested on: A498

Row | Structure (SMILES) | GI50 (SK-MEL-5) | GI50 (SN12C) | GI50 (NCI-H23) | GI50 (OVCAR-4) | GI50 (CAKI-1) | GI50 (KM12) | GI50 (UACC-62) | GI50 (HCT-116) | GI50 (NCI-H226) | GI50 (UACC-257) | GI50 (SNB-19) | GI50 (HOP-62) | GI50 (UO-31) | GI50 (NCI-H460) | GI50 (HCT-15) [µM] | GI50 (RXF 393) | GI50 (A498)
1 | Cc1ccc(S(=O)(=O)NC(=O)C2S(=O)(=O)OCCOS2(=O)=O)cc1 | > 100 µM (inactive) | > 100 µM (inactive) | > 100 µM (inactive) | > 100 µM (inactive) | > 100 µM (inactive) | > 100 µM (inactive) | > 100 µM (inactive) | > 100 µM (inactive) | 1.24 µM (inactive) | > 100 µM (inactive) | > 100 µM (inactive) | > 100 µM (inactive) | 40.8 µM (inactive) | – | – | – | –
2 | COc1ccc(/C(=N/NC(=O)NN)C(c2ccc(OC)cc2)C2(O)CNc3c(Cl)cc(Cl)cc32)cc1 (centres undefined) | > 100 µM (inactive) | > 100 µM (inactive) | > 100 µM (inactive) | > 100 µM (inactive) | – | > 100 µM (inactive) | 99.1 µM (inactive) | 50.9 µM (inactive) | > 100 µM (inactive) | > 100 µM (inactive) | > 100 µM (inactive) | > 100 µM (inactive) | > 100 µM (inactive) | > 100 µM (inactive) | > 100 | > 100 µM (inactive) | > 100 µM (inactive)
3 | Cn1c(CBr)nc2c1C(=O)c1nc(CBr)[nH]c(=O)c1C2=O | > 100 µM (inactive) | > 100 µM (inactive) | > 100 µM (inactive) | – | > 100 µM (inactive) | – | > 100 µM (inactive) | > 100 µM (inactive) | – | – | – | – | > 100 µM (inactive) | > 100 µM (inactive) | > 100 | > 100 µM (inactive) | > 100 µM (inactive)
4 | CSc1nc(NC2OCC(OC(C)=O)C(OC(C)=O)C2OC(C)=O)c(/N=C\C=N\c2c(NC3OCC(OC(C)=O)C(OC(C)=O)C3OC(C)=O)nc(SC)n(C)c2=O)c(=O)n1C (centres undefined) | > 100 µM (inactive) | > 100 µM (inactive) | > 100 µM (inactive) | > 100 µM (inactive) | – | > 100 µM (inactive) | > 100 µM (inactive) | > 100 µM (inactive) | – | > 100 µM (inactive) | 38.4 µM (inactive) | > 100 µM (inactive) | > 100 µM (inactive) | > 100 µM (inactive) | > 100 | > 100 µM (inactive) | > 100 µM (inactive)
5 | CN1S(=O)(=O)N(C)P12(N=P(CP(=NP13(N(C)S(=O)(=O)N1C)N(C)S(=O)(=O)N3C)(c1ccccc1)c1ccccc1)(c1ccccc1)c1ccccc1)N(C)S(=O)(=O)N2C | > 100 µM (inactive) | > 100 µM (inactive) | > 100 µM (inactive) | – | > 100 µM (inactive) | > 100 µM (inactive) | > 100 µM (inactive) | > 100 µM (inactive) | > 100 µM (inactive) | > 100 µM (inactive) | > 100 µM (inactive) | > 100 µM (inactive) | > 100 µM (inactive) | > 100 µM (inactive) | > 100 | > 100 µM (inactive) | > 100 µM (inactive)
6 | COc1cc(/C=C/c2ccc(OC(C)=O)cc2)cc(OC)c1OC | 18.6 µM (inactive) | 42 µM (inactive) | – | 22.8 µM (inactive) | 27.9 µM (inactive) | 32 µM (inactive) | 15.4 µM (inactive) | 26.9 µM (inactive) | 35.8 µM (inactive) | 33.4 µM (inactive) | 34 µM (inactive) | 45.7 µM (inactive) | 21.1 µM (inactive) | 26.1 µM (inactive) | 27.8 | 11.1 µM (inactive) | 23.6 µM (inactive)
7 | CC(C)C(Sc1nc(-c2ccccc2)c(-c2ccccc2)[nH]1)c1n[nH]c(=S)n1-c1ccccc1 (centres undefined) | 17.7 µM (inactive) | 37.2 µM (inactive) | 21.9 µM (inactive) | 35.5 µM (inactive) | – | 16.1 µM (inactive) | 11.5 µM (inactive) | 41.6 µM (inactive) | 37.7 µM (inactive) | 31.7 µM (inactive) | 25 µM (inactive) | 44.6 µM (inactive) | 22.8 µM (inactive) | 32.3 µM (inactive) | 50.5 | – | 43.3 µM (inactive)
8 | COc1ccc(/C=C/C(=O)c2sc(Nc3ccc([N+](=O)[O-])cc3)nc2C)cc1 | 18.2 µM (inactive) | 50.2 µM (inactive) | 26.5 µM (inactive) | – | 40.2 µM (inactive) | 27.4 µM (inactive) | 29.9 µM (inactive) | – | – | – | 35.3 µM (inactive) | 64.1 µM (inactive) | 25.4 µM (inactive) | 44.6 µM (inactive) | 34.4 | 23.1 µM (inactive) | 83.8 µM (inactive)
9 | C=CC[P@@]1(=O)O[C@H](c2ccccc2)C(C)N1C(C)C (some centres undefined) | > 100 µM (inactive) | > 100 µM (inactive) | > 100 µM (inactive) | > 100 µM (inactive) | – | > 100 µM (inactive) | > 100 µM (inactive) | – | > 100 µM (inactive) | – | > 100 µM (inactive) | – | > 100 µM (inactive) | > 100 µM (inactive) | > 100 | > 100 µM (inactive) | > 100 µM (inactive)
10 | Cc1ccc(C(=O)O/N=C2/CCC/C2=C\c2ccccc2)cc1 | > 100 µM (inactive) | > 100 µM (inactive) | > 100 µM (inactive) | > 100 µM (inactive) | > 100 µM (inactive) | > 100 µM (inactive) | > 100 µM (inactive) | > 100 µM (inactive) | > 100 µM (inactive) | > 100 µM (inactive) | – | > 100 µM (inactive) | > 100 µM (inactive) | > 100 µM (inactive) | > 100 | > 100 µM (inactive) | > 100 µM (inactive)
11 | COc1cc2c(cc1C1=NC(C)(C)CO1)OCO2 | > 100 µM (inactive) | > 100 µM (inactive) | > 100 µM (inactive) | > 100 µM (inactive) | > 100 µM (inactive) | > 100 µM (inactive) | > 100 µM (inactive) | > 100 µM (inactive) | > 100 µM (inactive) | > 100 µM (inactive) | > 100 µM (inactive) | > 100 µM (inactive) | > 100 µM (inactive) | > 100 µM (inactive) | > 100 | > 100 µM (inactive) | –
12 | CC(c1ccc(Br)cc1)C(C(=O)O)C(=O)O (centres undefined) | > 100 µM (inactive) | > 100 µM (inactive) | > 100 µM (inactive) | > 100 µM (inactive) | > 100 µM (inactive) | > 100 µM (inactive) | > 100 µM (inactive) | > 100 µM (inactive) | > 100 µM (inactive) | > 100 µM (inactive) | > 100 µM (inactive) | > 100 µM (inactive) | > 100 µM (inactive) | > 100 µM (inactive) | > 100 | > 100 µM (inactive) | –
13 | O=S(=O)(O)c1ccc(/N=N/c2nc(C(F)(F)F)c(C(F)(F)F)[nH]2)cc1 | > 100 µM (inactive) | 66.5 µM (inactive) | 24.2 µM (inactive) | 21.6 µM (inactive) | 29.2 µM (inactive) | > 100 µM (inactive) | 28.4 µM (inactive) | 37.7 µM (inactive) | 31.5 µM (inactive) | 69.5 µM (inactive) | 29.9 µM (inactive) | 36.6 µM (inactive) | 34 µM (inactive) | 82 µM (inactive) | 31.4 | 18.4 µM (inactive) | –
14 | COc1ccc(N2C(=O)C3c4[nH]c5ccccc5c4C4CCCCCCCCCCC4C3C2=O)cc1 (centres undefined) | 21.7 µM (inactive) | 4.89 µM (inactive) | 9.38 µM (inactive) | 26.2 µM (inactive) | 35.4 µM (inactive) | 7.03 µM (inactive) | 18.5 µM (inactive) | 5.25 µM (inactive) | 6.93 µM (inactive) | 31.6 µM (inactive) | 8.81 µM (inactive) | 20.3 µM (inactive) | > 40.6 µM (inactive) | 4.92 µM (inactive) | 5.52 | – | 9.4 µM (inactive)
15 | CC(C)(C)OP(=O)(OC(C)(C)C)C(O)c1ccc(/C=C(\C#N)C(N)=O)cc1 (centres undefined) | – | > 100 µM (inactive) | > 100 µM (inactive) | > 100 µM (inactive) | > 100 µM (inactive) | > 100 µM (inactive) | > 100 µM (inactive) | > 100 µM (inactive) | > 100 µM (inactive) | > 100 µM (inactive) | > 100 µM (inactive) | > 100 µM (inactive) | > 100 µM (inactive) | > 100 µM (inactive) | > 100 | > 100 µM (inactive) | > 100 µM (inactive)
16 | CCCCCCCCCCCCCCCCCC(=O)NCC(COP(=O)(O)O)OCC (centres undefined) | > 100 µM (inactive) | 22 µM (inactive) | 14.1 µM (inactive) | > 100 µM (inactive) | 31.2 µM (inactive) | 25 µM (inactive) | 54.3 µM (inactive) | 58.6 µM (inactive) | 27.7 µM (inactive) | > 100 µM (inactive) | 47.2 µM (inactive) | 22 µM (inactive) | 34.1 µM (inactive) | – | – | – | 24.3 µM (inactive)
17 | CN1/C(=C/C(=O)c2ccc(Cl)cc2)Nc2ccccc21 | 25.5 µM (inactive) | 60.4 µM (inactive) | 43.7 µM (inactive) | 77.6 µM (inactive) | 20 µM (inactive) | 42.4 µM (inactive) | 44.3 µM (inactive) | 45.7 µM (inactive) | 13.6 µM (inactive) | 31.9 µM (inactive) | 41.6 µM (inactive) | – | 13.2 µM (inactive) | 32.5 µM (inactive) | 45.9 | > 100 µM (inactive) | –
18 | N#C/C(=C1\SC(/N=N/c2ccc(Cl)cc2)C(=O)N1c1ccccc1)c1nc2ccccc2[nH]1 (centres undefined) | 35 µM (inactive) | 96.8 µM (inactive) | 17.3 µM (inactive) | 23 µM (inactive) | 48.4 µM (inactive) | – | 31.4 µM (inactive) | 46 µM (inactive) | 23.4 µM (inactive) | 27.3 µM (inactive) | 30.1 µM (inactive) | 19.8 µM (inactive) | 19.8 µM (inactive) | 33.7 µM (inactive) | 65.8 | 36.6 µM (inactive) | 29.7 µM (inactive)
